Values after ≈ are worked out from the molar mass of the structure shown.
conditions: buffer; pH 7.4; 200.0 µM

O=C(CSc1nccn1-c1ccccc1)NCc1ccc(F)cc1 and COc1ccccc1OCCC(=O)OCC(=O)NCc1ccc(F)cc1 are within 1.5-fold of each other in solubility kinetic: 33.5 µg/mL (≈ 98.1 µM) for the first, 23.5 µg/mL (≈ 65 µM) for the second.

Going from CCOCCCNC(=O)C1CCCN1C(=O)Nc1ccccc1[N+](=O)[O-] (centres undefined) to COc1ccccc1C(=O)NCCC(=O)NCC1CCCCC1, the solubility kinetic falls from over 54.7 µg/mL to 47.4 µg/mL (≈ 149 µM).

Compared with Cc1sc2ncnc(N[C@@H](Cc3ccccc3)C(=O)O)c2c1C, Cc1nc2sc(C(N)=O)c(N)c2c(C)c1CC(=O)c1ccccc1 is 28-fold lower in solubility kinetic: 46.8 µg/mL (≈ 143 µM) for the first, 1.7 µg/mL (≈ 5.01 µM) for the second.

Compared with O=S1(=O)N=C(c2ccccc2)c2ccccc21, CC(=O)N(Cc1ccccc1)c1ccccc1C(=O)O is higher in solubility kinetic: 34.7 µg/mL (≈ 143 µM) for the first, over 40.4 µg/mL for the second.

Going from Cc1cccc(C)c1NC(=S)NCCSc1ccc(Cl)cc1 to C/C(=N\OCc1cccc(C(=O)O)c1)c1ccc(Cl)cc1, the solubility kinetic rises from 3.3 µg/mL (≈ 9.4 µM) to over 45.6 µg/mL.

NC(=O)c1ccccc1OCCOc1ccc(Br)cc1 and NC1=NC(=O)/C(=C/c2ccccc2OCC(=O)Nc2ccc(F)cc2)S1 are within 1.5-fold of each other in solubility kinetic: 5.1 µg/mL (≈ 15.2 µM) for the first, 3.8 µg/mL (≈ 10.2 µM) for the second.

Compared with CC1Cc2ccccc2N1S(=O)(=O)c1cccc(C(=O)NCc2ccco2)c1 (centres undefined), Cc1c(C(=O)N2c3ccccc3CC2C)oc2ccccc12 (centres undefined) is 21-fold lower in solubility kinetic: 14.7 µg/mL (≈ 37.1 µM) for the first, 0.7 µg/mL (≈ 2.4 µM) for the second.

Cc1cc(=O)oc2cc(OCC(=O)NC3CCCC3)ccc12 and Cc1[nH]c2ccccc2c1C(=O)COC(=O)C1CCC1 are within 1.5-fold of each other in solubility kinetic: 22.9 µg/mL (≈ 76 µM) for the first, 24.1 µg/mL (≈ 88.8 µM) for the second.

Cl.c1ccc(C2NCCc3ccccc32)cc1 (centres undefined) and CN1CCC(NC(=O)c2cccc(Oc3ccccc3)c2)CC1 cannot be ordered by solubility kinetic: over 36.9 µg/mL for the first, over 46.6 µg/mL for the second.

Going from CCP(=O)(c1cccc([N+](=O)[O-])c1)c1cccc([N+](=O)[O-])c1 to Cn1c(=O)n(C)c2cc(NC(=O)Cc3ccccc3[N+](=O)[O-])ccc21, the solubility kinetic falls from over 48 µg/mL to 47.6 µg/mL (≈ 140 µM).

CCOC(=O)C1=C(C)NC(C)=C(C(=O)OCC)C1C(=O)OCC(=O)NC1CCCCC1 and COc1cccc(NC(=O)COC(=O)c2c(C)noc2C)c1 cannot be ordered by solubility kinetic: over 65.5 µg/mL for the first, over 45.6 µg/mL for the second.

Going from Cc1cc(C(=O)CN2C(=O)C(=O)N(Cc3ccccc3)C2=O)c(C)n1Cc1ccccc1 to O=C(Cc1ccccc1)NCC(=O)Nc1cccc(Cl)c1, the solubility kinetic rises from 4 µg/mL (≈ 9.31 µM) to 10 µg/mL (≈ 33 µM) (2.5-fold).

Cc1ccccc1C(=O)Nc1ccc(CN2CCOCC2)cc1 and Cc1ccc(NC(=O)C2CC(=O)N(Cc3ccco3)C2)cc1 (centres undefined) are within 1.5-fold of each other in solubility kinetic: 45.9 µg/mL (≈ 148 µM) for the first, 39.7 µg/mL (≈ 133 µM) for the second.

Cc1cccc(-c2noc(CNC(=O)c3ccco3)n2)c1 and Cc1cccc(-c2nc(C)cc(=O)[nH]2)c1 cannot be ordered by solubility kinetic: 42.5 µg/mL (≈ 150 µM) for the first, over 30 µg/mL for the second.

CCN(CC)Cc1ccc(OC)c(Cl)c1.Cl and COC(=O)[C@H](CC(C)C)NC(=O)NCc1ccc(Cl)cc1 cannot be ordered by solubility kinetic: over 39.6 µg/mL for the first, 42.5 µg/mL (≈ 136 µM) for the second.

COc1cc(C)cc(CN2CCC(Cc3ccccc3)CC2)c1O and Cc1nc2ccccc2c2oc(C(=O)N3CCCC(C)C3)cc12 (centres undefined) are within 1.5-fold of each other in solubility kinetic: 44.5 µg/mL (≈ 137 µM) for the first, 44.6 µg/mL (≈ 145 µM) for the second.

Going from CN(c1ccccc1)S(=O)(=O)c1ccc(C(=O)NCc2ccc(F)cc2)cc1 to COc1ccc(-c2nc3ccccc3c(=O)n2CCc2ccc(O)cc2)cc1, the solubility kinetic rises from 8.1 µg/mL (≈ 20.3 µM) to 12.4 µg/mL (≈ 33.3 µM) (1.5-fold).

Compared with Cc1cc(C)c(C#N)c(Nc2cccc(C)c2C)n1, COc1ccccc1NC(=O)Nc1ccc2c(c1)nc(C)n2C is 5.7-fold higher in solubility kinetic: 1 µg/mL (≈ 3.98 µM) for the first, 5.7 µg/mL (≈ 18.4 µM) for the second.

Compared with O=c1oc2ccccc2c(NCc2ccc(Cl)cc2)c1[N+](=O)[O-], O=C(Nc1ccccc1N1CCCC1)c1ccc([N+](=O)[O-])o1 is 32-fold higher in solubility kinetic: 1.4 µg/mL (≈ 4.23 µM) for the first, 44.9 µg/mL (≈ 149 µM) for the second.

First: COc1ccc(C2CC3(O)CC(C#N)(C(=O)N3)C2(C#N)C#N)cc1 (centres undefined)
Second: O=C(NCC1CCCO1)c1cccc(Oc2ccccc2)c1 (centres undefined)
The solubility kinetic of the first is higher: over 48.3 µg/mL for the first, 40.1 µg/mL (≈ 135 µM) for the second.

Compared with Cc1ccc(NC(=O)Cn2c(=O)oc3ccccc32)cc1C, CCNS(=O)(=O)c1ccc(NC(=O)Nc2cc(C)ccc2OC)cc1 is 4.7-fold lower in solubility kinetic: 4.2 µg/mL (≈ 14.2 µM) for the first, 0.9 µg/mL (≈ 2.48 µM) for the second.

Compared with Cl.NC(N)=NC(N)=Nc1cccc(Cl)c1, C/C(=N\O)c1cc(Cl)cc(Cl)c1O is lower in solubility kinetic: over 37.2 µg/mL for the first, 30.5 µg/mL (≈ 139 µM) for the second.

First: Cl.Nc1cnn(Cc2ccc(F)cc2)c1
Second: Cc1nc(N)nc(Cl)c1Cc1ccc(Cl)cc1
The solubility kinetic of the first is higher: over 34.2 µg/mL for the first, 3.6 µg/mL (≈ 13.4 µM) for the second.

Cc1ccc2c(c1)N(CC(=O)N1CCCC(C)C1)C(=O)CO2 (centres undefined) and Cc1ccc(OCC(=O)N2CCC(C)CC2)c([N+](=O)[O-])n1 are within 1.5-fold of each other in solubility kinetic: 45.3 µg/mL (≈ 150 µM) for the first, 43 µg/mL (≈ 147 µM) for the second.

Cc1ccc(C2(c3ccc(C)cc3)CC2C(=O)NC(C)C)cc1 (centres undefined) and Cc1cccc(C2NC(c3cccc(C)c3)C(C)C(=O)C2C)c1 (centres undefined) are within 1.5-fold of each other in solubility kinetic: 1 µg/mL (≈ 3.25 µM) for the first, 0.8 µg/mL (≈ 2.6 µM) for the second.

Compared with Cc1ccc(Cn2ccsc2=NC(=O)COC(=O)c2ccc(O)cc2O)cc1, CN(C)CCOC1c2ccccc2C=Cc2ccccc21.O=C(O)/C=C\C(=O)O is higher in solubility kinetic: 2.7 µg/mL (≈ 6.78 µM) for the first, over 59.3 µg/mL for the second.

Compared with Cc1ccc(C)n1-c1ccccc1N1CCCCC1, O=Cc1cn(CC(O)CN2CCCCC2)c2ccccc12 (centres undefined) is higher in solubility kinetic: 6.4 µg/mL (≈ 25.2 µM) for the first, over 43 µg/mL for the second.

First: O=C1CCCN1CCCNS(=O)(=O)c1cccc(F)c1
Second: CN(C)S(=O)(=O)Nc1ccccc1F
The solubility kinetic of the first is higher: over 45.1 µg/mL for the first, 30.2 µg/mL (≈ 138 µM) for the second.

Going from O=C(c1ccc([N+](=O)[O-])cc1)N1C=CC(C(F)(F)F)=NCC1 to CC(Sc1nc(N)cc(=O)[nH]1)C(=O)Nc1nc2c(s1)CCCC2 (centres undefined), the solubility kinetic falls from over 47 µg/mL to 8.7 µg/mL (≈ 24.8 µM).

In the case of Clc1nc(Cl)nc(NCCC2=CCCCC2)n1, the solubility kinetic is reported as over 41 µg/mL.

Source: PubChem BioAssay AID1996
